Molecules are shown by their SMILES.

Data set [1] in a line: Cytotoxicity against human Hep2 cells assessed as decrease in cell viability after 48 hrs by neutral red uptake assay. It counts as cell-based. Conditions: HEp-2 cells; call rule not given here.
In another data set the test system is Poliovirus 1. The data set is described as follows: Antiviral activity against Poliovirus 1 LSc-2ab infected in human Hep2 cells assessed as inhibition of virus-induced cytopathic effect after 48 hrs by neutral red uptake assay. It counts as functional, cell-based.
A short description of data set [2]: Selectivity index, ratio of CC50 for human Hep2 cells to IC50 for Poliovirus 1 infected in human Hep2 cells. Type of data set: toxicity, cell-based. Conditions: HEp-2 cells, read-out: Ratio CC50/IC50.
Data set [3] deals with Coxsackievirus B1. The data set is described as follows: Antiviral activity against Coxsackievirus B1 Connecticut 5 infected in human Hep2 cells assessed as inhibition of virus-induced cytopathic effect after 48 hrs by neutral red uptake assay. It counts as functional, cell-based. (In general: Protection from cytopathic effect is a common read-out in antiviral testing.)
For a further data set, the system named is Coxsackievirus B3. The data set is described as follows: Antiviral activity against Coxsackievirus B3 Nancy infected in human Hep2 cells assessed as inhibition of virus-induced cytopathic effect after 48 hrs by neutral red uptake assay. It counts as functional, cell-based.
Data set [4] can be described thus: Selectivity index, ratio of CC50 for human Hep2 cells to IC50 for Coxsackievirus B1 Connecticut 5 infected in human Hep2 cells. It counts as toxicity, cell-based. Conditions: HEp-2 cells, read-out: Ratio CC50/IC50.
Data set [5] in a line: Selectivity index, ratio of CC50 for human Hep2 cells to IC50 for Coxsackievirus B3 Nancy infected in human Hep2 cells. It counts as toxicity, cell-based. Conditions: HEp-2 cells, read-out: Ratio CC50/IC50.
For data set [6], the system named is Coxsackievirus B1. The data set is described as follows: Antiviral activity against Coxsackievirus B1 infected in new born ICR mouse assessed as increase in mean survival time at 75 mg/kg, sc administered for 12 days. It counts as functional.
Data set [7] concerns Coxsackievirus B1. The data set is described as follows: Antiviral activity against Coxsackievirus B1 infected in new born ICR mouse assessed as mortality at 75 mg/kg, sc administered for 12 days (reference value: 100%). Type of data set: functional. The conditions noted are these: Enterovirus B, 288 h.
Data set [8] deals with Coxsackievirus B1. The data set is described as follows: Antiviral activity against Coxsackievirus B1 infected in new born ICR mouse assessed as protection index at 75 mg/kg, sc administered for 12 days (reference value: 0%). It counts as functional.
In data set [9] the test system is Coxsackievirus B1. The data set is described as follows: Antiviral activity against Coxsackievirus B1 infected in new born ICR mouse assessed as increase in mean survival time at 50 mg/kg, sc administered for 12 days. Type of data set: functional.
Data set [10] concerns Coxsackievirus B1. The data set is described as follows: Antiviral activity against Coxsackievirus B1 infected in new born ICR mouse assessed as mortality at 50 mg/kg, sc administered for 12 days (reference value: 100%). The conditions noted are these: Enterovirus B, 288 h. It counts as functional.
In data set [11] the test system is Coxsackievirus B1. The data set is described as follows: Antiviral activity against Coxsackievirus B1 infected in new born ICR mouse assessed as protection index at 50 mg/kg, sc administered for 12 days (reference value: 0%). It counts as functional.
The test system of data set [12] is Coxsackievirus B1. The data set is described as follows: Antiviral activity against Coxsackievirus B1 infected in new born ICR mouse assessed as increase in mean survival time at 25 mg/kg, sc administered for 12 days. It counts as functional.
For data set [13], the system named is Coxsackievirus B1. The data set is described as follows: Antiviral activity against Coxsackievirus B1 infected in new born ICR mouse assessed as mortality at 25 mg/kg, sc administered for 12 days (reference value: 100%). It counts as functional. The conditions noted are these: Enterovirus B, 288 h.
Data set [14] relates to Coxsackievirus B1. The data set is described as follows: Antiviral activity against Coxsackievirus B1 infected in new born ICR mouse assessed as protection index at 25 mg/kg, sc administered for 12 days (reference value: 0%). Type of data set: functional.
Where [15] appears, read: Enterovirus C, LSc-2ab, HEp-2, 48 h, read-out: IC50.
[16] abbreviates: Enterovirus B, Connecticut 5, HEp-2, 48 h, read-out: IC50.
[17] abbreviates: Enterovirus B, Nancy, HEp-2, 48 h, read-out: IC50.

As to `N#Cc1cc([N+](=O)[O-])ccc1Oc1ccc(Cl)c(Cl)c1`, the CC50 (in general, the concentration at which the toxic effect on the cells reaches its halfway point) at 48 h in data set [1] is 493 µM. Also, the IC50 (usually the concentration that gives 50% inhibition) in the data set on Poliovirus 1 (setting [15]) worked out at 6.8 µM; in the data set on Coxsackievirus B1 [3] (setting [16]) it was 0.8 µM; in the data set with Coxsackievirus B3 (setting [17]), 2.7 µM. Also, the selectivity ratio in data set [2] came to 72.5; in data set [4] it was 587; in data set [5], 182. Besides, the MST with Coxsackievirus B1 [6] is 3 days. For the same molecule, in the data set with Coxsackievirus B1 [7], the mortality – broadly, the percentage killed – at 75 mg/kg stood at 100%. In addition, the PI with Coxsackievirus B1 [8] came to 0%.

Take `Cc1c(Br)cc(Br)c(Oc2ccc([N+](=O)[O-])cc2C#N)c1Br`: the CC50 at 48 h in data set [1] was 570 µM. Besides, the IC50 entry in the data set on Poliovirus 1 was “Not Active”; in the data set with Coxsackievirus B1 [3] (setting [16]) it was 256 µM; in the data set with Coxsackievirus B3 (setting [17]), 29.6 µM. For the same molecule, the selectivity ratio in [4] is 2.2; in [5], 19.6.

As for `N#Cc1cc([N+](=O)[O-])ccc1Oc1c(Cl)c(Cl)c(Cl)c(Cl)c1Cl`, the CC50 at 48 h in data set [1] was 119 µM. In addition, the concentration for half-maximal inhibition (IC50) result in the data set with Poliovirus 1 was “Not Active”; in the data set on Coxsackievirus B1 [3] (setting [16]) it was 10.9 µM; in the data set with Coxsackievirus B3 (setting [17]), 5.8 µM. The selectivity ratio in [4] worked out at 10.9; in [5] it was 20.5.

Turning to `CC1(C)CC(Nc2ccc([N+](=O)[O-])cc2C#N)CC(C)(C)N1`, in [1], the CC50 at 48 h was 675 µM. In addition, the IC50 entry was “Not Active” in the data set with Poliovirus 1, “Not Active” with Coxsackievirus B1 [3] and 426 µM in the data set on Coxsackievirus B3 (setting [17]). In addition, the selectivity ratio in data set [5] was 1.5.

With `N#Cc1cc([N+](=O)[O-])ccc1Oc1ncn(-c2ccccc2)n1`, the CC50 at 48 h in [1] turned out to be 571 µM. Further, the IC50 result in the data set on Poliovirus 1 is “Not Active”; in the data set with Coxsackievirus B1 [3] (setting [16]), 190 µM; in the data set with Coxsackievirus B3, “Not Active”. In data set [4], the selectivity ratio was 3.

For `N#Cc1cc([N+](=O)[O-])ccc1Oc1c(F)cccc1F`, in data set [1], the CC50 at 48 h amounted to 355 µM. For the same molecule, the IC50 is 6.8 µM with Poliovirus 1 (setting [15]), 0.7 µM in the data set on Coxsackievirus B1 [3] (setting [16]) and “Not Active” with Coxsackievirus B3. Besides, the selectivity ratio in data set [2] was determined as 52.2; in [4], 507. Moreover, the MST in the data set on Coxsackievirus B1 [9] worked out at 5.4 days. For the same molecule, the mortality at 50 mg/kg in the data set on Coxsackievirus B1 [10] turned out to be 66.7%. The PI in the data set with Coxsackievirus B1 [11] is reported as 33.3%.

Take `N#Cc1cc([N+](=O)[O-])ccc1Oc1ccccc1-c1cn2ccccc2n1`: the CC50 at 48 h in data set [1] came out at 718 µM. The IC50 entry with Poliovirus 1, in the data set with Coxsackievirus B1 [3] and in the data set with Coxsackievirus B3 was “Not Active” each time.

Consider `COc1ccc(Oc2ccc([N+](=O)[O-])cc2C#N)c(C(C)(C)C)c1`, for which the 50% cytotoxic concentration (CC50) at 48 h in data set [1] amounted to 22 µM. Also, the IC50 result in the data set on Poliovirus 1, with Coxsackievirus B1 [3] and with Coxsackievirus B3 was “Not Active” throughout.

As to `N#Cc1cc([N+](=O)[O-])ccc1Oc1ccc(F)c(F)c1`, the CC50 at 48 h in data set [1] came out at 320 µM. Also, the IC50 in the data set on Poliovirus 1 (setting [15]) was 2.7 µM; in the data set with Coxsackievirus B1 [3] (setting [16]), 0.8 µM; with Coxsackievirus B3, “Not Active”. Moreover, the selectivity ratio in data set [2] came to 118; in data set [4] it was 405. Moreover, in the data set on Coxsackievirus B1 [9], the MST turned out to be 5 days. Also, in the data set on Coxsackievirus B1 [10], the mortality at 50 mg/kg is 50%. In the data set on Coxsackievirus B1 [11], the PI worked out at 50%.

Consider `N#Cc1cc([N+](=O)[O-])ccc1N1C[C@@H]2C[C@H](C1)c1cccc(=O)n1C2`, for which the CC50 at 48 h in data set [1] amounted to 492 µM. In addition, the results for the IC50 in the data set with Poliovirus 1 (setting [15]), in the data set with Coxsackievirus B1 [3] (setting [16]) and with Coxsackievirus B3 were 234 µM, 152 µM and “Not Active”, respectively. The selectivity ratio stood at 2.1 in [2] and 3.2 in data set [4].

As for `N#Cc1cc([N+](=O)[O-])ccc1Oc1c(F)cc(F)cc1F`, in data set [1], the CC50 at 48 h was found to be 518 µM. Also, the concentration for half-maximal inhibition (IC50) with Poliovirus 1 (setting [15]) was 2.7 µM; with Coxsackievirus B1 [3] (setting [16]), 0.75 µM; in the data set on Coxsackievirus B3, “Not Active”. The selectivity ratio in [2] came out at 192; in data set [4], 690. In addition, the MST in the data set with Coxsackievirus B1 [12] stood at 2.6 days. For the same molecule, the mortality at 25 mg/kg with Coxsackievirus B1 [13] is 88.4%. Further, the PI in the data set on Coxsackievirus B1 [14] was determined as 11.6%.

In the case of `N#Cc1cc([N+](=O)[O-])ccc1Sc1ccccc1Cl`, in data set [1], the CC50 at 48 h worked out at 53.8 µM. In addition, the IC50 entry in the data set on Poliovirus 1 was “Not Active”; in the data set on Coxsackievirus B1 [3] it was “Not Active”; in the data set with Coxsackievirus B3 (setting [17]) it was 9.9 µM. In data set [5], the selectivity ratio amounted to 5.4.

Turning to `Cc1ccc(C(C)C)c(Oc2ccc([N+](=O)[O-])cc2C#N)c1`, the CC50 at 48 h in data set [1] is 94.3 µM. Further, the half-inhibitory concentration (IC50) entry is “Not Active” in the data set on Poliovirus 1, 16.2 µM in the data set on Coxsackievirus B1 [3] (setting [16]) and “Not Active” with Coxsackievirus B3. Further, in [4], the selectivity ratio is 5.8.

For the origin of these results see ChEMBL document CHEMBL4043211, “Synthesis and anti-enterovirus activity of new analogues of MDL-860” (Bioorg Med Chem Lett, 2017).
